# In patent US12281122B1, “PI3K inhibitors” (Cogent Biosciences, Inc., priority 2023, dated 2025):
# Key:
# [1] = test system: SKBR3 (PI3Kα-Wild Type) cell line; assay: HTRF phospho-AKT(S473) cell assay in SKBR3 cells; format: cell-based, human; details: Homo sapiens, SK-BR-3, 2 hours compound incubation, PDGF-BB stimulated
# In short: (§1)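 Cells plated overnight (T47D in RPMI/10% FBS/0.2 units/mL insulin; SKBR3 in McCoy's 5A/10% FBS), then given 12-point 1:3 compound series (top 5 μM T47D, 10 μM SKBR3; ≤0.5% DMSO) for 2 h at 37° C. SKBR3 stimulated with 70 ng/ml PDGF-BB for final 15 min. Lysate pAKT(S473) by HTRF; IC50 calculated.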
# [2] = test system: T47D (PI3Kα-H1047R) cell line; assay: HTRF phospho-AKT(S473) cell assay in T47D cells; format: cell-based, human; details: Homo sapiens, 2 hours compound incubation
# In short: as §1
# [3] = HTRF phospho-AKT(S473), SKBR3 (PI3Kα-Wild Type) cells
# [4] = HTRF phospho-AKT(S473), T47D (PI3Kα-H1047R) cells
# [5] = SKBR3 (PI3Kα-Wild Type) cells, HTRF phospho-AKT(S473)
# [6] = T47D (PI3Kα-H1047R) cells, HTRF phospho-AKT(S473)
Compound,"IC50 [1, 3] [nM]","IC50 [2, 4] [nM]","IC50 [1, 5] [nM]","IC50 [2, 6] [nM]",also measured
"Cc1cc([C@@H](C)Nc2ccc(Cl)nc2C(=O)NS(C)(=O)=O)c2nc(C#Cc3cnn(C)c3)n(C)c(=O)c2c1 [Compound 845, (R)-6-chloro-3-((1-(3,6-dimethyl-2-((1-methyl-1H-pyrazol-4-yl)ethynyl)-4-oxo-3,4-dihydroquinazolin-8-yl)ethyl)amino)-N-(methylsulfonyl) picolinamide]",–,–,–,–,"IC50 ([1]; SKBR3 (PI3Kα-Wild Type) cell line, phospho-AKT(S473) HTRF): ≥ 5000 nM; IC50 ([2]; T47D (PI3Kα-H1047R) cell line, phospho-AKT(S473) HTRF): 500 to 1000 nM"
"Cc1cc([C@@H](C)Nc2ccc(Cl)nc2C(=O)NS(C)(=O)=O)c2nc(N3CCC(c4ncn(C(C)C)n4)CC3)n(C)c(=O)c2c1 [Compound 550, (R)-6-chloro-3-((1-(2-(4-(1-isopropyl-1H-1,2,4-triazol-3-yl)piperidin-1-yl)-3,6-dimethyl-4-oxo-3,4-dihydroquinazolin-8-yl)ethyl)amino)-N-(methylsulfonyl) picolinamide]",≥ 5000,250 to 500,–,–,–
"Cc1cc([C@@H](C)Nc2ccc(Cl)nc2C(=O)NS(C)(=O)=O)c2nc(N3CCC(c4cnccn4)CC3)n(C)c(=O)c2c1 [Compound 398, (R)-6-chloro-3-((1-(3,6-dimethyl-4-oxo-2-(4-(pyrazin-2-yl)piperidin-1-yl)-3,4-dihydroquinazolin-8-yl)ethyl)amino)-N-(methylsulfonyl) picolinamide]",–,–,≥ 5000,250 to 500,–
"Cc1cc([C@@H](C)Nc2ccc(Cl)nc2C(=O)NS(C)(=O)=O)c2nc(N3CCC(c4nccnc4C)CC3)n(C)c(=O)c2c1 [Compound 438, (R)-6-chloro-3-((1-(3,6-dimethyl-2-(4-(3-methylpyrazin-2-yl)piperidin-1-yl)-4-oxo-3,4-dihydroquinazolin-8-yl)ethyl)amino)-N-(methylsulfonyl) picolinamide]",–,–,≥ 5000,250 to 500,–
"Cc1cc([C@@H](C)Nc2ccc(Cl)nc2C(=O)NS(C)(=O)=O)c2nc(N3CCC(c4ccn(C(F)F)n4)CC3)n(C)c(=O)c2c1 [Compound 413, (R)-6-chloro-3-((1-(2-(4-(1-(difluoromethyl)-1H-pyrazol-3-yl)piperidin-1-yl)-3,6-dimethyl-4-oxo-3,4-dihydroquinazolin-8-yl)ethyl)amino)-N-(methylsulfonyl) picolinamide]",–,–,1000 to 5000,< 250,–
"Cc1cc([C@@H](C)Nc2ccc(Cl)nc2C(=O)NS(C)(=O)=O)c2nc(N3CCC[C@@H](c4ccn(C(F)F)n4)C3)n(C)c(=O)c2c1 (relative stereo) [Compound 768, 6-chloro-3-(((R)-1-(2-((R*)-3-(1-(difluoromethyl)-1H-pyrazol-3-yl)piperidin-1-yl)-3,6-dimethyl-4-oxo-3,4-dihydroquinazolin-8-yl)ethyl)amino)-N-(methylsulfonyl) picolinamide]",≥ 5000,250 to 500,–,–,–
"CO[C@H]1C[C@H](S(=O)(=O)NC(=O)c2nc(Cl)ccc2N[C@H](C)c2cc(C)cc3c(=O)n(C)c(N4Cc5ccc(F)cc5C4)nc23)C1 [Compound 379, 6-chloro-3-(((R)-1-(2-(5-fluoroisoindolin-2-yl)-3,6-dimethyl-4-oxo-3,4-dihydroquinazolin-8-yl)ethyl)amino)-N-(((1r,3R)-3-methoxycyclobutyl)sulfonyl)picolinamide]",–,–,≥ 5000,250 to 500,–
"Cc1cc([C@@H](C)Nc2ccc(Cl)nc2C(=O)NS(C)(=O)=O)c2nc(N3C[C@H]4C[C@@H]3CN4c3ccc(C#N)cn3)n(C)c(=O)c2c1 [Compound 601, 6-chloro-3-(((R)-1-(2-((1R,4R)-5-(5-cyanopyridin-2-yl)-2,5-diazabicyclo [2.2.1]heptan-2-yl)-3,6-dimethyl-4-oxo-3,4-dihydroquinazolin-8-yl)ethyl)amino)-N-(methylsulfonyl) picolinamide]",1000 to 5000,250 to 500,–,–,–
"Cc1cc([C@@H](C)Nc2ccc(Cl)nc2C(=O)NS(C)(=O)=O)c2nc([C@H]3CCCN(c4nccc(C)n4)C3)n(C)c(=O)c2c1 (mixture of isomers) [Compound 756, 6-chloro-3-(((R)-1-(3,6-dimethyl-2-((RS)-1-(4-methylpyrimidin-2-yl)piperidin-3-yl)-4-oxo-3,4-dihydroquinazolin-8-yl)ethyl)amino)-N-(methylsulfonyl) picolinamide]",≥ 5000,500 to 1000,–,–,–

# Second part, led by results:
"IC50 [1, 3] [nM]","IC50 [2, 4] [nM]","IC50 [1, 5] [nM]","IC50 [2, 6] [nM]",Compound,also measured
1000 to 5000,250 to 500,–,–,"Cc1cc([C@@H](C)Nc2ccc(Cl)nc2C(=O)NS(C)(=O)=O)c2nc(N3C[C@@H]4[C@H](C3)[C@H]4n3cc(C)cn3)n(C)c(=O)c2c1 [Compound 491, 6-chloro-3-(((R)-1-(3,6-dimethyl-2-((1R,5S,6S)-6-(4-methyl-1H-pyrazol-1-yl)-3-azabicyclo[3.1.0]hexan-3-yl)-4-oxo-3,4-dihydroquinazolin-8-yl)ethyl)amino)-N-(methylsulfonyl) picolinamide]",–
–,–,1000 to 5000,< 250,"Cc1cc([C@@H](C)Nc2ccc(Cl)nc2C(=O)NS(C)(=O)=O)c2nc(N3CCC[C@H](c4cn[nH]c4)C3)n(C)c(=O)c2c1 (mixture of isomers) [Compound 168, 3-(((R)-1-(2-((RS)-3-(1H-pyrazol-4-yl)piperidin-1-yl)-3,6-dimethyl-4-oxo-3,4-dihydroquinazolin-8-yl)ethyl)amino)-6-chloro-N-(methylsulfonyl) picolinamide]",–
–,–,1000 to 5000,250 to 500,"Cc1cc([C@@H](C)Nc2ccc(Cl)nc2C(=O)NS(C)(=O)=O)c2nc(N3C[C@@H]4[C@H](C3)[C@H]4c3nn(C)cc3F)n(C)c(=O)c2c1 [Compound 391, 6-chloro-3-(((R)-1-(2-((1R,5S,6R)-6-(4-fluoro-1-methyl-1H-pyrazol-3-yl)-3-azabicyclo[3.1.0]hexan-3-yl)-3,6-dimethyl-4-oxo-3,4-dihydroquinazolin-8-yl)ethyl)amino)-N-(methylsulfonyl) picolinamide]",–
1000 to 5000,< 250,–,–,"Cc1cc([C@@H](C)Nc2ccc(Cl)nc2C(=O)NS(C)(=O)=O)c2nc(N3C[C@@H]4[C@H](C3)[C@H]4c3nnn(C)n3)n(C)c(=O)c2c1 [Compound 496, 6-chloro-3-(((R)-1-(3,6-dimethyl-2-((1R,5S,6R)-6-(2-methyl-2H-tetrazol-5-yl)-3-azabicyclo[3.1.0]hexan-3-yl)-4-oxo-3,4-dihydroquinazolin-8-yl)ethyl)amino)-N-(methylsulfonyl) picolinamide]",–
≥ 5000,250 to 500,–,–,"Cc1cc([C@@H](C)Nc2ccc(Cl)nc2C(=O)NS(C)(=O)=O)c2nc(N3C[C@@H]4[C@H](C3)[C@H]4n3cc(Cl)cn3)n(C)c(=O)c2c1 [Compound 583, 6-chloro-3-(((R)-1-(2-((1R,5S,6S)-6-(4-chloro-1H-pyrazol-1-yl)-3-azabicyclo[3.1.0]hexan-3-yl)-3,6-dimethyl-4-oxo-3,4-dihydroquinazolin-8-yl)ethyl)amino)-N-(methylsulfonyl) picolinamide]",–
≥ 5000,250 to 500,–,–,"Cc1cc([C@@H](C)Nc2ccc(Cl)nc2C(=O)NS(C)(=O)=O)c2nc(N3C[C@@H]4C[C@H]3CN4c3cnc(C)cn3)n(C)c(=O)c2c1 [Compound 591, 6-chloro-3-(((R)-1-(3,6-dimethyl-2-((1S,4S)-5-(5-methylpyrazin-2-yl)-2,5diazabicyclo [2.2.1]heptan-2-yl)-4-oxo-3,4-dihydroquinazolin-8-yl)ethyl)amino)-N-(methylsulfonyl) picolinamide]",–
–,–,≥ 5000,< 250,"Cc1cc([C@@H](C)Nc2ccc(Cl)nc2C(=O)NS(C)(=O)=O)c2nc(N3C[C@@H]4CC(n5cc(C)cn5)C[C@H]4C3)n(C)c(=O)c2c1 (single isomer, unassigned) [Compound 367, 6-chloro-3-(((R)-1-(3,6-dimethyl-2-((3aR*,6aR*)-5-(4-methyl-1H-pyrazol-1-yl)hexahydrocyclopenta [c]pyrrol-2(1H)-yl)-4-oxo-3,4-dihydroquinazolin-8-yl)ethyl)amino)-N-(methylsulfonyl) picolinamide]",–
1000 to 5000,< 250,–,–,"Cc1cc([C@@H](C)Nc2ccc(Cl)nc2C(=O)NS(C)(=O)=O)c2nc(N3C[C@@H]4[C@H](C3)[C@H]4c3ccnn3C3CC3)n(C)c(=O)c2c1 [Compound 460, 6-chloro-3-(((R)-1-(2-((1R,5S,6R)-6-(1-cyclopropyl-1H-pyrazol-5-yl)-3-azabicyclo[3.1.0]hexan-3-yl)-3,6-dimethyl-4-oxo-3,4-dihydroquinazolin-8-yl)ethyl)amino)-N-(methylsulfonyl) picolinamide]",–
1000 to 5000,250 to 500,–,–,"Cc1cc([C@@H](C)Nc2ccc(Cl)nc2C(=O)NS(C)(=O)=O)c2nc(N3Cc4cn(CC5CC5)nc4C3)n(C)c(=O)c2c1 [Compound 683, (R)-6-chloro-3-((1-(2-(2-(cyclopropylmethyl)-2,6-dihydropyrrolo[3,4-c]pyrazol-5(4H)-yl)-3,6-dimethyl-4-oxo-3,4-dihydroquinazolin-8-yl)ethyl)amino)-N-(methylsulfonyl) picolinamide]",–
≥ 5000,250 to 500,–,–,"COc1nccc(N2C[C@H]3C[C@@H]2CN3c2nc3c([C@@H](C)Nc4ccc(Cl)nc4C(=O)NS(C)(=O)=O)cc(C)cc3c(=O)n2C)n1 [Compound 582, 6-chloro-3-(((R)-1-(2-((1R,4R)-5-(2-methoxypyrimidin-4-yl)-2,5-diazabicyclo [2.2.1]heptan-2-yl)-3,6-dimethyl-4-oxo-3,4-dihydroquinazolin-8-yl)ethyl)amino)-N-(methylsulfonyl) picolinamide]",–
